# Test results: publication PMC11785640, “Structure-based inhibition of acetylcholinesterase and butyrylcholinesterase with 2-Aryl-6-carboxamide benzoxazole derivatives: synthesis, enzymatic assay, and in silico studies” (Molecular Diversity, 2024)
# Assays:
# [1] = system: AChE; settings: cited from earlier work
# [2] = target: AChE (Electrophorus electricus, UniProt O42275); assay: biochemical; format: biochemical; settings: for Ki: from Lineweaver-Burk graphs, mean ± SD, triplicate; for Selectivity index (AChE/BChE): ratio AChE/BChE
# Chain of AChE (Electrophorus electricus, UniProt O42275) (O42275 24-633): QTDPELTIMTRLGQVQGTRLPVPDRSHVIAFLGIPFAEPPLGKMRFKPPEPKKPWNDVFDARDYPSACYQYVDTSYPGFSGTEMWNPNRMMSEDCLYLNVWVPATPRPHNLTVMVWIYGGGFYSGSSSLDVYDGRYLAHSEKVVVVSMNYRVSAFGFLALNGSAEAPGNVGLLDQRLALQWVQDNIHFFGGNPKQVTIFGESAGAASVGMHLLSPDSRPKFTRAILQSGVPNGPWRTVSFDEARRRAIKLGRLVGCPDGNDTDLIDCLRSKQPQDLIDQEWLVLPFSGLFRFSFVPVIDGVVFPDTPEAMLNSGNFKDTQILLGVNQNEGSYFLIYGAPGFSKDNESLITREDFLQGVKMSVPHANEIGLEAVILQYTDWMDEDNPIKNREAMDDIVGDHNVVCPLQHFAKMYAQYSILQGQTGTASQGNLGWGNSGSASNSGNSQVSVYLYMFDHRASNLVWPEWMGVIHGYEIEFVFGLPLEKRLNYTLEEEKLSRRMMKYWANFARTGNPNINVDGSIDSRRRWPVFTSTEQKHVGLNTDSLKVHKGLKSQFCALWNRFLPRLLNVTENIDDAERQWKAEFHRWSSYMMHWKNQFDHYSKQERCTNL
# Procedure: (§1) These analogs were dissolved in DMSO at an initial concentration of 1 mg/mL. Around 1% of DMSO was present in the final reaction mixture. Acetylthiocholine iodide (AChI)/butyrylcholine iodide (BChI) were used as substrates for enzymatic reactions. […] The mixture was incubated at 20 °C for 20 min. Then, 50 µL of 5,5’-dithio-bis 2-nitro-benzoic acid (DTNB, 0.5 mM) and AChI/BChI were added and enzymatic reactions were initiated.
# (§2) Lineweaver-Burk graphs were used for the calculation of Ki and the other parameters as described in prior studies. The Ki values were taken out from this graph. All analyses were conducted independently in triplicate, and result data are expressed as mean values ± SD [59].
# [3] = target: BChE (Equus caballus, UniProt P81908); assay: biochemical; format: biochemical; settings: for Ki: from Lineweaver-Burk graphs, mean ± SD, triplicate
# Chain of BChE (P81908 whole entry): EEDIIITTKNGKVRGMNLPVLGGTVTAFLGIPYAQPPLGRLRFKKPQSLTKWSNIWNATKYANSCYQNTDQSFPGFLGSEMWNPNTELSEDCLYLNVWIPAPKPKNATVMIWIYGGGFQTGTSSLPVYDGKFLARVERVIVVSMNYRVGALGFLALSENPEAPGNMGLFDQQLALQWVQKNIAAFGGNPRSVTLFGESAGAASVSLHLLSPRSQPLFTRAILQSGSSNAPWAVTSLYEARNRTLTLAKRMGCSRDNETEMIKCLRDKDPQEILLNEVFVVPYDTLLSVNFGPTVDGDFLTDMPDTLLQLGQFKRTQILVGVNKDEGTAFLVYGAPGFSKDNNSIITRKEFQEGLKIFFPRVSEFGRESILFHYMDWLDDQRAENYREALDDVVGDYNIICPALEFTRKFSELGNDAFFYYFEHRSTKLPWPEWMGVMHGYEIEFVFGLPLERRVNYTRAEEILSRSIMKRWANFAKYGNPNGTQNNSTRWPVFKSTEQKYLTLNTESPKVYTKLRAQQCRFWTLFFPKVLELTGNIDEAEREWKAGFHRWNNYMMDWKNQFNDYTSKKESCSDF
# Procedure: as §1, §2
Structure (SMILES),concentration at which it inhibits AChE [1] [nM],IC50 [1] [µM],IC50 [2] [nM],Ki [2] [nM],Selectivity index (AChE/BChE) [2],IC50 [3] [nM],Ki [3] [nM]
CN(C)C(=O)Oc1ccccc1-c1nc2ccccc2o1 [Compound 1],58.2,–,–,–,–,–,–
Cc1ccc(CC(=O)Nc2ccc3nc(-c4ccccc4)oc3c2)cc1 [Compound 4],–,0.0384,–,–,–,–,–
"S=c1oc2ccccc2n1CN1CCOCC1 [Compound 5, 3-morpholino methyl-2-thione benzoxazole]",–,0.044,–,–,–,–,–
"O=C(c1ccc2nc(-c3cccs3)oc2c1)N1CCCC1 [Compound 46, Pyrrolidin-1-yl(2-(thiophen-2-yl)benzo[d]oxazol-6-yl)methanone]",–,–,31.5,29.2 ± 0.64,0.33,84.3,87.5 ± 13.6
O=C(c1ccc2nc(-c3ccccc3)oc2c1)N1CCCCC1 [Compound 11],–,–,21.4,18.6 ± 2.58,0.25,61.2,74.4 ± 16.9
CCN1CCN(CC(=O)Nc2ccc3nc(-c4ccc(C(C)(C)C)cc4)oc3c2)CC1 [Compound 3],–,0.00367,–,–,–,–,–
"O=C(c1ccc2nc(-c3ccncc3)oc2c1)N1CCCCC1 [Compound 29, Piperidin-1-yl(2-(pyridin-4-yl)benzo[d]oxazol-6-yl)methanone]",–,–,28,27.4 ± 2.53,–,54.1,47.9 ± 8.42
O=C(c1ccc2nc(-c3ccco3)oc2c1)N1CCOCC1 [Compound 42],–,–,21,14.6 ± 3.01,0.30,58.7,48.6 ± 4.55
"O=C(c1ccc2nc(-c3cccc4ccccc34)oc2c1)N1CCOCC1 [Compound 24, Morpholino(2-(naphthalen-1-yl)benzo[d]oxazol-6-yl)methanone]",–,–,50.9,45.7 ± 1.65,0.90,83.8,50.7 ± 14
"CCN(CC)C(=O)c1ccc2nc(-c3ccco3)oc2c1 [Compound 38, N,N-diethyl-2-(furan-2-yl)benzo[d]oxazole-6-carboxamide]",–,–,52.8,41.2 ± 7.41,0.69,70.4,59.4 ± 8.01
"CN(C)C(=O)c1ccc2nc(-c3cccs3)oc2c1 [Compound 43, N,Ndimethyl-2-(thiophen-2-yl)benzo[d]oxazole-6-carboxamide]",–,–,29.2,19.9 ± 0.73,0.17,130,120 ± 25.7
"O=C(c1ccc2nc(-c3ccc[nH]3)oc2c1)N1CCCC1 [Compound 34, (2-(1 H-pyrrol-2-yl)benzo[d]oxazol-6-yl)(pyrrolidin-1-yl)methanone]",–,–,26.7,15.5 ± 1.96,0.32,53.2,48.2 ± 2.56
"CCN(CC)Cn1c(=S)oc2ccccc21 [Compound 6, 3-(diethylamino) methyl-2-thione benzoxazole]",–,0.038,–,–,–,–,–
"CCCN(CCC)C(=O)c1ccc2nc(-c3ccc(-c4ccccc4)cc3)oc2c1 [Compound 15, 2-([1,1’-Biphenyl]-4-yl)-N,N-dipropylbenzo[d]oxazole-6-carboxamide]",–,–,40.7,38.2 ± 0.66,0.40,113,95.7 ± 7.32
